From patent publication US4803223A (priority 1985, dated 1989)
Like-named read-outs stand apart in the source and are kept apart here.

Columns and labels:
[1] = test system: Ehrlich ascites carcinoma; experiment: animal or person; format: in vivo, mice (CD2F1-strain Swiss, female); details: Mus musculus, ip, 1440 h, read-out: T/C (%)
[2] = test system: Walker carcinosarcoma 256; set-up: species or system Sprague-Dawley rats (male); details: rat, in vivo
[3] = test system: P388 leukemia; set-up: species or system CDF1-strain mice (male); details: mouse, in vivo

CSC=CCN(CCCl)c1ccc(NC(=O)NCCCl)cc1 [Compound 31]
response vs control in vivo at 150 mg/kg [1]: 184%

CCN(CCCl)c1ccc(NC(=O)NCCCl)cc1 [Compound 10]
response vs control in vivo at 100 mg/kg [1]: 222%

CC(C)C=CCN(CCCl)c1ccc(NC(=O)NCCBr)cc1 [Compound 26]
T/C (%) ([2]; 200 mg/kg): 216%

CC=CCN(CCCl)c1cccc(NC(=O)NCCCl)c1 [Compound 24]
response vs control in vivo at 150 mg/kg [1]: 234%

CCCCCCN(CCCl)c1ccc(NC(=O)NCCF)cc1 [Compound 14]
response vs control in vivo at 50 mg/kg [1]: 275%

CC(C)N(CCBr)c1ccc(NC(=O)NCCCl)cc1 [Compound 13]
T/C (%) ([3]; 100 mg/kg): 134%

C=CCC(CBr)N(CCBr)c1ccc(NC(=O)NCCBr)cc1 (stereo not shown) [Compound 28]
T/C (%) ([2]; 25 mg/kg): 182%

C#CCCCCN(CCCl)c1ccc(NC(=O)NCCCl)cc1 [Compound 36]
response vs control in vivo at 100 mg/kg [1]: 186%

COCCN(CCCl)c1ccc(NC(=O)NCCCl)cc1 [Compound 20]
response vs control in vivo at 50 mg/kg [1]: 281%

O=C(NCCF)Nc1ccc(N(CCCl)CCOc2ccccc2)cc1 [Compound 23]
T/C (%) ([3]; 50 mg/kg): 156%

C=CC(C#N)N(CCCl)c1ccc(NC(=O)NCCCl)cc1 (stereo not shown) [Compound 29]
T/C (%) ([3]; 25 mg/kg): 187%

CCCOC=CN(CCI)c1ccccc1NC(=O)NCCBr [Compound 30]
response vs control in vivo at 200 mg/kg [1]: 205%

CC#CCCN(CCBr)c1ccc(NC(=O)NCCCl)cc1 [Compound 35]
response vs control in vivo at 150 mg/kg [1]: 191%

C=CCCCN(CCCl)c1ccc(NC(=O)NCCCl)cc1 [Compound 25]
response vs control in vivo at 100 mg/kg [1]: 178%

CCSCCN(CCCl)c1ccc(NC(=O)NCCBr)cc1 [Compound 21]
T/C (%) ([2]; 100 mg/kg): 207%

C#CN(CCCl)c1ccc(NC(=O)NCCBr)cc1 [Compound 17]
response vs control in vivo at 100 mg/kg [1]: 294%

C=CCN(CCCl)c1ccc(NC(=O)NCCCl)cc1 [Compound 16]
response vs control in vivo at 150 mg/kg [1]: 235%

O=C(NCCCl)Nc1ccc(N(CCF)CCC=CCOc2ccccc2)cc1 [Compound 32]
T/C (%) ([3]; 50 mg/kg): 150%

CCCN(CCCl)c1cccc(NC(=O)NCCBr)c1 [Compound 11]
response vs control in vivo at 100 mg/kg [1]: 203%

O=C(NCCCl)Nc1ccc(N(CCl)CCCl)cc1 [Compound 18]
T/C (%) ([3]; 25 mg/kg): 154%

N#CCCN(CCCl)c1ccc(NC(=O)NCCI)cc1 [Compound 22]
T/C (%) ([2]; 50 mg/kg): 256%

C#CCN(CCCl)c1cccc(NC(=O)NCCCl)c1 [Compound 33]
T/C (%) ([2]; 200 mg/kg): 169%

CN(CCI)c1cccc(NC(=O)NCCI)c1 [Compound 15]
T/C (%) ([2]; 150 mg/kg): 220%

O=C(NCCF)Nc1ccc(N(CCF)CCF)cc1 [Compound 8]
T/C (%) ([3]; 25 mg/kg): 134%

O=C(NCCCl)Nc1ccc(N(CCBr)CCCBr)cc1 [Compound 19]
T/C (%) ([2]; 50 mg/kg): 329%

C#CC(C)N(CCI)c1ccc(NC(=O)NCCF)cc1 (stereo not shown) [Compound 34]
response vs control in vivo at 150 mg/kg [1]: 199%

CN(CCBr)c1ccc(NC(=O)NCCBr)cc1 [Compound 12]
T/C (%) ([2]; 50 mg/kg): 329%

O=C(NCCCl)Nc1cccc(N(CC=CCCl)CCCl)c1 [Compound 27]
response vs control in vivo at 50 mg/kg [1]: 246%
